Here are results for three compounds from article PMC11094307, “Marine-derived EGFR inhibitors: novel compounds targeting breast cancer growth and drug resistance” (Frontiers in Pharmacology, 2024).

Where two headings read alike, the source gives them in different places.

By Kd is commonly meant a measure of binding affinity in units of concentration. One may read the EC50 as the concentration that produces a half-maximal response. As a reminder, the IC50 is the point on the concentration scale where inhibition reaches its midpoint.

Assay [1] deals with T1, EGFR intracellular kinase domain (Homo sapiens, UniProt P00533). Briefly: SPR binding (Biacore 8K). Set-up: the intracellular tyrosine kinase (TK) domain of EGFR, tagged with GST; purchased Sinobiological, China. The note with it: without ATP. The source says:
(§1) The extracellular ligand-binding domain of EGFR, tagged with His, and the intracellular tyrosine kinase (TK) domain of EGFR, tagged with GST, were acquired from Sinobiological, China. Kinase assay systems for both wild-type EGFR and its mutants—T790M, L858R, and the dual L858R/T790M—were procured from Promega Corporation, USA. Cell lines including MCF-7, A549, A431, H1299, HL-60, and MCF-10A were obtained from the China Infrastructure Cell Line Resources.
(§2) The binding affinities of compounds towards EGFR extracellular ligand binding domain and EGFR intracellular kinase domain were assayed using the SPR-based Biacore 8K instrument (Cytiva). Considering the purchased EGFR was fused with GST tag, GST alone was also immobilized on the chip to do the binding measurement. All the proteins were respectively immobilized on a CM5 sensor chip by using standard amine-coupling at 25°C with running buffer HEPES-P (20 mM HEPES buffer, […], 0.05% surfactant P20, pH 7.4). A reference channel was only activated and blocked to eliminate compound unspecific binding to the surface of the chip. The immobilization level of EGFR extracellular ligand binding domain, EGFR intracellular kinase domain and GST were all about 10,000 RU. […] Extra wash with 50% DMSO was added to remove the last remaining sample in the pipeline.
A general note: In SPR one partner is held on a chip, and binding of the other changes the refractive index at the surface.

The next assay relates to MCF-7 cells. Briefly: MTT assay, MCF-7 growth inhibition. Type of assay: cell-based, human. The note with it: Homo sapiens, read-out: EC50, MCF-7 cell viability. The method, then:
Both mediums were enriched with 10% fetal bovine serum and 1% penicillin/streptomycin.
Cells in the exponential growth phase were seeded into 96-well plates and allowed to adhere overnight. […] After 24 h, 20 µL of Methyl-thiazolyldiphenyl-tetrazolium bromide (MTT, 5 mg/mL, Thermo Fisher Scientific) was added to each well and incubated for a minimum of 4 h. Following the incubation, the medium containing the compounds and MTT was removed from each well, and 200 µL of dimethyl sulfoxide (DMSO) was added.
(§3) All experiments were repeated at least three times, and the data are presented as mean ± standard deviation (SD). The statistical analyses were performed using Origin. EC50 or IC50 values were obtained by fitting the data to a four-parameter Hill model of the graph of log dose against percentage cell viability or inhibition from at least three sets of experiments. Difference between two groups were analyzed by Student’s t test (two-sided) and significance was set at p < 0.05. The specific details about statistical methods are introduced in respective figure legends.

The target in a further assay is T2, EGFR T790M (Homo sapiens, UniProt P00533, T790M).
T2 construct: purchased Promega Corporation, USA
T2 sequence (P00533 25-1210 T790M): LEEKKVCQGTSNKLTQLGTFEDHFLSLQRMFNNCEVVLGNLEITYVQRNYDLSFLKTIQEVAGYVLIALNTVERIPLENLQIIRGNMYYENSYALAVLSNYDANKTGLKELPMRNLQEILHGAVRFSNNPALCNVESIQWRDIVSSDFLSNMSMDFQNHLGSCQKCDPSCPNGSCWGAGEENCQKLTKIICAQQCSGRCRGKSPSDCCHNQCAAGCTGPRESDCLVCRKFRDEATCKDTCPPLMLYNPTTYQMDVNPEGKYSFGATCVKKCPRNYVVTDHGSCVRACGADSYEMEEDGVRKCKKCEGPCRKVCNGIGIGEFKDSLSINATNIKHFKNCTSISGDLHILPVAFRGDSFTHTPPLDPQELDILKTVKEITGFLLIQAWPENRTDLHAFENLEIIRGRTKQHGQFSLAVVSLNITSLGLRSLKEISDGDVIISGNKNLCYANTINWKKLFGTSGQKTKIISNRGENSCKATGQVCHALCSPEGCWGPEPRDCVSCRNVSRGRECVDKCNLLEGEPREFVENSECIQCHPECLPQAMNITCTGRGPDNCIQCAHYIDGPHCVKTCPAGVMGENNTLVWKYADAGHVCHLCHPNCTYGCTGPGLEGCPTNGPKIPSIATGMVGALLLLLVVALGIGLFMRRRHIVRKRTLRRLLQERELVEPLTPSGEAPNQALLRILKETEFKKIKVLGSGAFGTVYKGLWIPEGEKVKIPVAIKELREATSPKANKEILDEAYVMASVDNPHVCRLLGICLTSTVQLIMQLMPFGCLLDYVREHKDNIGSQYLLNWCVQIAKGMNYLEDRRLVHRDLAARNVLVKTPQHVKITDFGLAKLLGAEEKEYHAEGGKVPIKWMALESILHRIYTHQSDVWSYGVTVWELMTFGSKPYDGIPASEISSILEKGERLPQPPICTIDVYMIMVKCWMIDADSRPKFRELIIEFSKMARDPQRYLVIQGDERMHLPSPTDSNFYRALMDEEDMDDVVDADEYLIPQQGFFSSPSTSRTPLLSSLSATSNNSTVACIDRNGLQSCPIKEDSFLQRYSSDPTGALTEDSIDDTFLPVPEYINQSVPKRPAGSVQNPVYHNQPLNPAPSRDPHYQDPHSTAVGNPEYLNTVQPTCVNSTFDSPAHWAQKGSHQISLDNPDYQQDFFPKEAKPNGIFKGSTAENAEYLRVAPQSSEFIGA
The assay is described as follows: Kinase inhibition assay (ADP-Glo, Promega). Type of assay: biochemical. The method, then: (§4) The extracellular ligand-binding domain of EGFR, tagged with His, and the intracellular tyrosine kinase (TK) domain of EGFR, tagged with GST, were acquired from Sinobiological, China. […] Cell lines including MCF-7, A549, A431, H1299, HL-60, and MCF-10A were obtained from the China Infrastructure Cell Line Resources.
(§5) The experiments were conducted in accordance with the manufacturer’s guidelines (Promega). The procedure began with a kinase reaction, where 5 μL of 1× kinase buffer was utilized, and the mixture was incubated at room temperature for 60 min. This step was followed by the addition of 5 μL of ADP-Glo™ reagent to terminate the kinase reaction and to deplete any remaining ATP, with a subsequent incubation period of 40 min at room temperature. Next, 10 μL of kinase detection reagent was added to convert ADP back into ATP, and luciferase along with luciferin was introduced to facilitate ATP detection. This mixture was then incubated at room temperature for an additional 30 min. Detection was carried out using a BioTek Synergy4 instrument, and data analysis, including curve fitting and presentation, was performed using GraphPad Prism version 5.0.
as §3
For orientation: ADP-Glo turns the ADP formed in a reaction into a luminescent signal.

Another assay deals with T3, WT EGFR (Homo sapiens, UniProt P00533).
T3 construct: purchased Promega Corporation, USA
T3 sequence (P00533 25-1210): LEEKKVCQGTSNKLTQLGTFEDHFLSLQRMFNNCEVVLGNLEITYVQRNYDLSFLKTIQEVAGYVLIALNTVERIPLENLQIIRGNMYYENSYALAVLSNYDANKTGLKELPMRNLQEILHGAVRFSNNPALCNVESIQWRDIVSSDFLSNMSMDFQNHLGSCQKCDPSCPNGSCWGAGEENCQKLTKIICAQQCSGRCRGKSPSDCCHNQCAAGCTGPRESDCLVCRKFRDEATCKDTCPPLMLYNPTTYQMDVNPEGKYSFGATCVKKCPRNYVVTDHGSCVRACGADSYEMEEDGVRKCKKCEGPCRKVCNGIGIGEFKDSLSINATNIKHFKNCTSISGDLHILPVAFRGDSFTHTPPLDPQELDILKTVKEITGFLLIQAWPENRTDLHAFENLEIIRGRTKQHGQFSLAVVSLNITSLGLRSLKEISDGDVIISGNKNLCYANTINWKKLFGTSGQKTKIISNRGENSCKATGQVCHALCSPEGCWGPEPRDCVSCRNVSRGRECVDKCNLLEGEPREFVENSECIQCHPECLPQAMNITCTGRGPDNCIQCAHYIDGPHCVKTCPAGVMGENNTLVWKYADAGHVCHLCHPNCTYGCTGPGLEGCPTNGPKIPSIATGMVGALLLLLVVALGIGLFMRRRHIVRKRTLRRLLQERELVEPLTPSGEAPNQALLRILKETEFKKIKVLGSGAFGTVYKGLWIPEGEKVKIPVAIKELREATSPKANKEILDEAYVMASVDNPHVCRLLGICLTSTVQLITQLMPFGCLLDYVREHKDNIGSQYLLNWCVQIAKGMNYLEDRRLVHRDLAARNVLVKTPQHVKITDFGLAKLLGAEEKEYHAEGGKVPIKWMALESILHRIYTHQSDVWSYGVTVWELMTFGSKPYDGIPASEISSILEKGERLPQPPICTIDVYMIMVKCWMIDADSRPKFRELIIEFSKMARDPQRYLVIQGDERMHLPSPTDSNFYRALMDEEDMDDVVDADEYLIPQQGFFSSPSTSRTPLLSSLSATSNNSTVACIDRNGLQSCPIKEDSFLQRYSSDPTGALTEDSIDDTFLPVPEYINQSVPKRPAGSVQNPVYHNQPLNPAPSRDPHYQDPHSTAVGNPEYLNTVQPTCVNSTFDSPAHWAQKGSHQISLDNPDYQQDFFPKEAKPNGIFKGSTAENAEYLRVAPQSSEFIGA
The assay is described as follows: Kinase inhibition assay (ADP-Glo, Promega). It counts as biochemical. The note with it: in vitro kinase assay. The method, then: as §4, §5, §3

The target in assay [2] is T4, EGFR extracellular ligand binding domain (Homo sapiens, UniProt P00533).
T4 construct: His; purchased Sinobiological, China
T4 sequence (P00533 25-645 limits assumed): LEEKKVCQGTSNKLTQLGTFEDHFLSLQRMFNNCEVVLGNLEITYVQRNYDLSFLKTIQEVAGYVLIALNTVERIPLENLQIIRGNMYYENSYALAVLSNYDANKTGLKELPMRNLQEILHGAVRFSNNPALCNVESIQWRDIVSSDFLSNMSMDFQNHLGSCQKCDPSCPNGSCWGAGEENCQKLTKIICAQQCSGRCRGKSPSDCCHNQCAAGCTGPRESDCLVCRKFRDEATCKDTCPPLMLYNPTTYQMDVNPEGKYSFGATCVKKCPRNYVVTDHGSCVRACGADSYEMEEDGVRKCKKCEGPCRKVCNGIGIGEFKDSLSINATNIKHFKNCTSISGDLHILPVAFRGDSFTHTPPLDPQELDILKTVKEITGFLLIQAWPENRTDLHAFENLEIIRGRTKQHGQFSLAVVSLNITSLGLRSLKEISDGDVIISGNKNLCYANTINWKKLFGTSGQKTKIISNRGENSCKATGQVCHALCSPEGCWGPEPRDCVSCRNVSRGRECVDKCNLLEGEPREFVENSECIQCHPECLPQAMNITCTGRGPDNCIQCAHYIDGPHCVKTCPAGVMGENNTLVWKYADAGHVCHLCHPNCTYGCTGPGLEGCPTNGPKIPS
The assay is described as follows: SPR binding (Biacore 8K).
From the text: as §1, §2

Assay [3] deals with T1, EGFR intracellular kinase domain. Briefly: SPR ATP competition experiments (1 mM ATP). The conditions noted are these: in the presence of ATP, Figure S6.
In the next assay the target is T5, EGFR L858R/T790M (Homo sapiens, UniProt P00533, L858R/T790M).
T5 construct: purchased Promega Corporation, USA
The assay is described as follows: Kinase inhibition assay (ADP-Glo, Promega). It counts as biochemical. The method, then: as §4, §5, §3

A further assay addresses T6, EGFR L858R (Homo sapiens, UniProt P00533, L858R).
T6 construct: purchased Promega Corporation, USA
Briefly: Kinase inhibition assay (ADP-Glo, Promega). Type of assay: biochemical. As for the experimental part: as §4, §5, §3

Assay [4] has as its target T4, EGFR extracellular ligand binding domain. The assay is described as follows: SPR EGF competition experiments. The conditions noted are these: for kon: read-out: ka. An excerpt:
The protocol fixed the pre-flank contact time, analyte contact time, and post-flank contact time at 60 s, 60 s, and 120 s, respectively.

T1 sequence (P00533 712-979 limits assumed): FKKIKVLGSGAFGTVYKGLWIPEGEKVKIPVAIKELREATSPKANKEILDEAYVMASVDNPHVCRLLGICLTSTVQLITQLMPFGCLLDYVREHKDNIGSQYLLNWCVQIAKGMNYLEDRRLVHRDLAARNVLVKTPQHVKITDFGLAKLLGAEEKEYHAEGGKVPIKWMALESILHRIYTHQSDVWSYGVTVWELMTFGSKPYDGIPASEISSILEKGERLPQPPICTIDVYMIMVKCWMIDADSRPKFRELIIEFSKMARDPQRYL
T6 sequence (P00533 25-1210 L858R): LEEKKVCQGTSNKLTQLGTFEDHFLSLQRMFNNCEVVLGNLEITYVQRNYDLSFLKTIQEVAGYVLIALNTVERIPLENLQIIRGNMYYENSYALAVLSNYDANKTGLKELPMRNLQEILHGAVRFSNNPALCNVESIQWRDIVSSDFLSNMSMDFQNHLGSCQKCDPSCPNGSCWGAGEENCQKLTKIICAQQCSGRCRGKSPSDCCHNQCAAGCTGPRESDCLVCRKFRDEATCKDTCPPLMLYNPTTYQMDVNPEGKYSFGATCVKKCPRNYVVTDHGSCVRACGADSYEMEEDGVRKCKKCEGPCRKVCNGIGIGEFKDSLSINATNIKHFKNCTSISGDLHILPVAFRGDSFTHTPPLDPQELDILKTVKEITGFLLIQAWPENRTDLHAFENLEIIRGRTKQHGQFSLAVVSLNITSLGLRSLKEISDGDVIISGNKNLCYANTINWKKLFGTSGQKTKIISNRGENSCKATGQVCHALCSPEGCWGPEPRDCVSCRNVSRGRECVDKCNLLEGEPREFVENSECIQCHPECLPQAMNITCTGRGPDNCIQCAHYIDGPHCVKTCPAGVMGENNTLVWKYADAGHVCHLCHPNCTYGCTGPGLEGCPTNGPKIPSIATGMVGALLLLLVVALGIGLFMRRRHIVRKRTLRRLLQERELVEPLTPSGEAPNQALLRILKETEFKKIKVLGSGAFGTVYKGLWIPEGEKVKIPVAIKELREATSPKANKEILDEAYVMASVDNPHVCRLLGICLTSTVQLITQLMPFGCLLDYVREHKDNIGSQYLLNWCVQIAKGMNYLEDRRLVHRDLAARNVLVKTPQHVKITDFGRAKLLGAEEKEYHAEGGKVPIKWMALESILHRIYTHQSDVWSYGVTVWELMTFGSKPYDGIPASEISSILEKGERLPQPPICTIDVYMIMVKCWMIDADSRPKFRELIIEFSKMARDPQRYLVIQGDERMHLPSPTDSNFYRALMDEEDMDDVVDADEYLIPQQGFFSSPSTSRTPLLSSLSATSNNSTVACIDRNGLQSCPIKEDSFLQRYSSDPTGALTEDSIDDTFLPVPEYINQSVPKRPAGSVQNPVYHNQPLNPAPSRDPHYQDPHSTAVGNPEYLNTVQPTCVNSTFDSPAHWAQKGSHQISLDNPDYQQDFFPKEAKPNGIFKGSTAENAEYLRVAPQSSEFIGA

For `CC[C@@H](C)[C@H]1C=C[C@H]2[C@H](OC(=O)/C=C(\C)CC(=O)OC)[C@H](O)C[C@@H](C)[C@@H]2[C@@]1(C)C(=O)CCO` [Tandyukisin B], the Kd in [1] stood at 7.02 µM; in [2], 30 µM. Also, the EC50 in the assay with MCF-7 cells (MCF7, MTT, 24 h) was 9.2 ± 1.2 µM. For the same compound, the half-inhibitory concentration (IC50) at EGFR T790M (in vitro kinase assay, read-out: IC50 against EGFR T790M) was found to be 0.0373 ± 0.0001 µM; on WT EGFR (read-out: IC50 against WT EGFR) it was 0.0147 ± 0.0011 µM. For the same compound, the “binding to kinase domain of EGFR” value in [3] was “hardly bind”.

Take `CC[C@@H](C)[C@H]1C=C[C@H]2[C@H](OC(=O)C/C(C)=C\C(=O)O)[C@H](O)C[C@@H](C)[C@@H]2[C@@]1(C)C(=O)CCO` [Tandyukisin C]: the Kd in assay [1] was 6.56 µM; in assay [2], 55.1 µM. In addition, the EC50 with MCF-7 cells (MCF7, 24 h) amounted to 8.7 ± 1 µM. The concentration for half-maximal inhibition (IC50) on EGFR L858R/T790M came out at 0.156 ± 0.004 µM; at EGFR T790M it was 0.0297 ± 0.0001 µM; on WT EGFR (IC50 against WT EGFR) it was 0.0126 ± 0.0001 µM; on EGFR L858R it was 0.003 ± 0.0002 µM. In addition, in [3], the “binding to kinase domain of EGFR” value is “hardly bind”.

Take `CC[C@@H](C)[C@H]1C=C[C@H]2[C@H](O)[C@H](OC(=O)/C=C(\C)CC(=O)O)C[C@@H](C)[C@@H]2[C@@]1(C)C(=O)CCO` [Trichoharzin]: the equilibrium dissociation constant (Kd) in assay [1] was 6.34 µM; in assay [4] (EGF 2.5 nM, Figure 4H, read-out: KD) it was 26.2 µM; in [4] (EGF 10 nM, Figure 4I, read-out: KD), 40.6 µM; in assay [4] (EGF 20 nM, Figure 4J, read-out: KD), 56.2 µM; in assay [4] (in the presence of EGF 2.5 nM, read-out: KD for EGFR extracellular ligand binding domain), 26.2 µM; in assay [4] (in the presence of EGF 10 nM, read-out: KD for EGFR extracellular ligand binding domain), 40.6 µM. For the same compound, the Kd in [4] (in the presence of EGF 20 nM, read-out: KD for EGFR extracellular ligand binding domain) was 56.2 µM; in [2] it was 7.98 µM. The kon is 8040 M⁻¹ s⁻¹ in [1] (Figure 4A-B, read-out: ka, EGFR kinase domain); 1030 M⁻¹ s⁻¹ in assay [4] (EGF 2.5 nM, Figure 4H); 552 M⁻¹ s⁻¹ in assay [4] (EGF 10 nM, Figure 4I); 374 M⁻¹ s⁻¹ in [4] (EGF 20 nM, Figure 4J); 1810 M⁻¹ s⁻¹ in [2] (Figure 4C-D, read-out: ka, EGFR ligand binding domain). Further, the “folds weaker than binding alone” value amounted to 3.3 fold in assay [4] (EGF 2.5 nM), 5.1 fold in assay [4] (EGF 10 nM) and 7.0 fold in assay [4] (EGF 20 nM). In addition, the “inhibition of EGF-EGFR interaction” value in assay [4] (SPR, concentration-dependent, 125-500 μM) was “significantly inhibiting”. Besides, in the assay with MCF-7 cells (MCF7, 24 h), the half-maximal effective concentration (EC50) was determined as 4.8 ± 0.4 µM. Further, the IC50 on EGFR L858R/T790M amounted to 0.0855 ± 0.0277 µM; on EGFR T790M, 0.032 ± 0.0005 µM; on WT EGFR (IC50 against WT EGFR), 0.0119 ± 0.0001 µM; at EGFR L858R, 0.0028 ± 0.0006 µM.
